Patent publication US20240148682A1, “METHOD FOR REGULATING DOWNSTREAM SIGNALING PATHWAY MEDIATED BY ACTIVATION OF TRIMETHYLAMINE-N-OXIDE” (China Medical University, priority 2022, published 2024)

Assays:
miR-221 = assay: Quantitative PCR of miR-221 expression in hEPCs; format: cell-based, human; details: for inhibiting the expression of miR-221: trimethylamine-N-oxide 300 μM, 125 μM DHA (embodiment 3) or EPA (embodiment 6), 24 hours, compared with comparison group 1
Experimental: To analyze the effects of the omega-3 polyunsaturated fatty in inhibiting the inflammatory responses induced by the activation of the trimethylamine-N-oxide, human endothelial progenitor cells are cultured in the MCDB-131 medium supplemented with the 10% fetal bovine serum and the EGM™-2 growth kit and are administered separately with reagent formulations of the control group 1, the comparison group 1, and the embodiments 1 to 6 shown in Table 1. After the culture time of 24 hours has elapsed, the expressions of cytokines related to the inflammatory responses in the human endothelial progenitor cells are analyzed by enzyme-linked immunosorbent assay (ELISA) and quantitative PCR (qPCR) so as to evaluate the effects of the omega-3 polyunsaturated fatty acids in inhibiting the inflammatory responses mediated by the activation of the trimethylamine-N-oxide. Each experiment is repeated 3 times.
In detail, according to the previous studies, miRNA-221 (“miR-221” hereafter) plays an essential role in the physiological metabolism of the human endothelial progenitor cells. […] Therefore, the present disclosure uses the quantitative PCR and the enzyme-linked immunosorbent assay to analyze the expressions of miR-221 and IL-6 in the human endothelial progenitor cells of the control group 1, the comparison group 1, and the embodiments 1 to 6 after cell culture for 24 hours so as to evaluate the effects of the omega-3 polyunsaturated fatty acids in inhibiting the inflammatory responses induced by the activation of the trimethylamine-N-oxide.
Furthermore, the operation details of the quantitative PCR and the enzyme-linked immunosorbent assay are well-known in the art and can be adjusted according to the experimental requirements, so the detailed steps thereof will not be described herein again.

[1] = system: human endothelial progenitor cells; assay: Neovasculogenesis index of hEPCs on Matrigel (Calcein-AM); format: cell-based; details: SCF 20 ng/mL, trimethylamine-N-oxide 300 μM (comparison group 3) vs SCF alone (comparison group 2), p<0.05
Experimental: (§1) To analyze the effects of the omega-3 polyunsaturated fatty acids in alleviating the impairment of neovascularization induced by the activation of the trimethylamine-N-oxide, human endothelial progenitor cells are cultured in the MCDB-131 medium containing the EGM™-2 growth kit and the 10% fetal bovine serum in a Matrigel-coated 96-well plate. Then, the human endothelial progenitor cells are administered separately with reagent formulations of the control group 2, the comparison groups 2 to 3, and the embodiments 7 to 9 shown in Table 2, and incubated in an incubator at 37° C. for 8 hours.
After the culture time of 8 hours has elapsed, the human endothelial progenitor cells are fixed in glutaraldehyde/paraformaldehyde solution and treated with Calcein-AM solution so as to detect the fluorescent signals of different groups. The proteins of the human endothelial progenitor cells are extracted and analyzed by the Western blot analysis to confirm the expressions of factors related to the Akt/eNOS signaling pathway, the MAPK/ERK signaling pathway and the expression of gamma-glutamylcysteine synthetase (“γ-GCS” hereafter), wherein the γ-GCS participates in the synthesis of GSH. The GSH/GSSG ratios in the human endothelial progenitor cells are analyzed by using the liquid chromatography, the electrospray ionization, and the mass spectrometry. Each experiment is repeated 3 times.

[2] = system: human endothelial progenitor cells; assay: GSH/GSSG ratio in hEPCs by liquid chromatography, electrospray ionization, mass spectrometry; format: cell-based; details: SCF 20 ng/mL, trimethylamine-N-oxide 300 μM (comparison group 3) vs SCF alone (comparison group 2), p<0.05
Experimental: as §1
(§2) After the culture time of 8 hours has elapsed, the human endothelial progenitor cells are fixed in glutaraldehyde/paraformaldehyde solution and treated with Calcein-AM solution so as to detect the fluorescent signals of different groups. The proteins of the human endothelial progenitor cells are extracted and analyzed by the Western blot analysis to confirm the expressions of factors related to the Akt/eNOS signaling pathway, the MAPK/ERK signaling pathway and the expression of gamma-glutamylcysteine synthetase (“γ-GCS” hereafter), wherein the γ-GCS participates in the synthesis of GSH. The GSH/GSSG ratios in the human endothelial progenitor cells are analyzed by using the liquid chromatography, the electrospray ionization, and the mass spectrometry. Each experiment is repeated 3 times. […]

[3] = system: Akt/eNOS signaling pathway and MAPK/ERK signaling pathway; assay: Western blot of factors of the Akt/eNOS and MAPK/ERK signaling pathways in SCF-treated hEPCs; format: cell-based, human; details: SCF 20 ng/mL, trimethylamine-N-oxide 300 μM (comparison group 3) vs SCF alone (comparison group 2), 8 hours
Experimental: as §1, §2

| Compound | inhibiting the expression of miR-221 (miR-221) | expression of miR-221 (miR-221; trimethylamine-N-oxide 300 μM alone (comparison group 1) vs control group 1, 24 hours) | neovasculogenesis index [1] | GSH/GSSG ratio [2] | expressions of p-Akt, p-eNOS, and p-ERK1/2 [3] |
| --- | --- | --- | --- | --- | --- |
| CC/C=C\C/C=C\C/C=C\C/C=C\C/C=C\C/C=C\CCC(=O)O [DHA, docosahexaenoic acid] | 85% | – | – | – | – |
| CC/C=C\C/C=C\C/C=C\C/C=C\C/C=C\CCCC(=O)O [EPA, eicosapentaenoic acid] | 75% | – | – | – | – |
| C[N+](C)(C)[O-] [trimethylamine-N-oxide, Trimethylamine-N-oxide] | – | significantly higher | significantly lower | significantly lower | lower |
